Measurements as given in article PMC5501099 (Malaria Journal, 2017).

Key:
[1] = Population pharmacokinetic model of ivermectin in healthy Thai volunteers; format: in vivo, human; details: single oral 200 µg/kg
Protocol: The first-order conditional estimation method with interaction was used throughout model development. Model diagnostics and automation were performed using Xpose version 4.0 [25], Pirana and Pearl-speaks-NONMEM (PsN; version 3.6.0). The objective function value (OFV; calculated by NONMEM as proportional to −2 × loglikelihood of data) was used to discriminate between hierarchical models. A difference between two models (ΔOFV) of >3.84 and >10.83 were considered statistically significant at a P value of <0.05 and <0.001, respectively. Models were assessed using standard goodness-of-fit and simulation-based diagnostics (i.e. numerical and visual predictive checks using 2000 simulations). The robustness of the final model was evaluated by bootstrapping (n = 1000).
Different disposition models (one-, two- and three-compartment models) and absorption models (first-order and transit models) were evaluated to describe the pharmacokinetic structural model of ivermectin. Pharmacokinetic parameters were assumed to be log-normally distributed and inter-individual variability was implemented as exponential functions. […] The influence of other individual covariates including gender, age, haemoglobin, haematocrit, total bilirubin, direct bilirubin, alkaline phosphatase, aspartate aminotransferase, and alanine aminotransferase, serum creatinine, blood urea nitrogen, and albumin level were investigated using a stepwise covariate approach (P value <0.05 and <0.001 for forward and backward addition and deletion, respectively).
There were no observations reported to be below the lower limit of quantification. […] A flexible transit absorption model (n = 2) improved the model fit substantially compared to the first-order absorption (∆OFV = −378). […] Implementing body weight as a covariate in the model also allowed for translation and interpretation to other study populations.

Plasmodium vivax = experiment: Effect of ivermectin on Plasmodium vivax sporogony in Anopheles minimus; format: in vivo; details: An. minimus
Protocol: Mosquitoes reared in Bangkok were transported to a field laboratory at the Mae Sot Malaria Medical Clinic in Mae Sot, Tak Province. Plasmodium vivax-infected blood was collected from malaria-infected patients reporting to malaria clinics operated by the Thailand Ministry of Public Health in Tak Province (protocol WRAIR#1949A). Patient plasma was removed and replaced by centrifuging blood samples at 3000 rpm for 5 min, plasma removed and blood washed with RPMI twice, and malaria-naïve AB+ serum was added at a 50:50 ratio [30]. One millilitre of blood was fed to each group of 100 mosquitoes in 0.5-l cardboard containers and unfed mosquitoes were removed. Mosquitoes were maintained on 10% sucrose ad libitum at the Mae Sot field insectary (25 ± 1 °C and 70 ± 10% relative humidity, light 12 h:12 h dark photoperiod). Once infected with P. vivax, blood-fed mosquitoes were securely transported back to Bangkok and maintained in a separate insectary (25 ± 1 °C and 70 ± 10% relative humidity, light 12 h:12 h dark photoperiod).
Unfed mosquitoes were removed from the feeding containers after each blood meal. Mosquitoes from the DPI 0 and DPI −3 feeding schedules were dissected 7 days post parasite ingestion to enumerate oocysts. Midguts were dissected with minuten pins into saline on a microscope slide and stained with 0.4% mercurochrome and viewed at 40× magnification with a compound microscope to determine oocyst prevalence and intensity. Approximately 25 mosquitoes were dissected from each control and treatment group at each dissection time point. Dissectors were blinded to treatment groups. Due to lack of initial mosquito blood feeding and mosquitoes lost to experimental mortality and oocyst dissections at day 7 post parasite feeding, not enough mosquitoes remained at day 14 post parasite feeding to determine sporozoite prevalence for the DPI −3 and 0 experiments. Mosquitoes from the DPI 6 and 9 experiments were dissected 14 days post parasite ingestion to determine sporozoite prevalence. […]
(§1) A non-linear mixed effects model with probit analysis was used to calculate LC50, LC25 and LC5 values with Statistical Analysis Software (SAS Institute Inc, Cary, NC, USA) as described previously. Hazard ratios for mosquito mortality at day 7 post blood meal were calculated using Poisson regression analysis with STATA version 12.1 (StataCorp LLC, College Station, TX, USA). […] To determine if P. vivax infection altered mosquito survivorship post-ivermectin ingestion survival data were analysed by the Mantel–Cox method. The Fishers Exact, Mann–Whitney U, and survival analysis data were analysed with Prism 7 (GraphPad Software Inc, San Diego, CA, USA).

Anopheles dirus = experiment: Effect of Plasmodium vivax infection on Anopheles dirus survivorship response to ivermectin; format: in vivo; details: ivermectin LC25 co-ingested with parasites on DPI 0 vs ivermectin LC25 only; 14 days
Excerpt: Anopheles dirus were fed a P. vivax blood meal or a non-infectious blood meal prepared from uninfected donor blood and serum was replaced as described above. […] After blood feeding, 50 blood fed females from each treatment group were transferred to a new 0.5-l cardboard carton. Mosquito survivorship was monitored daily and dead mosquitoes were removed from the containers until day 14 post blood meal. Any live mosquitoes at day 14 were frozen and counted as alive. A separate group of mosquitoes were fed a P. vivax control blood meal to ensure that the P. vivax sample was infectious to mosquitoes and only isolates that successfully infected at least 80% of An. dirus were included in the results.
as §1

An. dirus = experiment: Anticoagulant effects on mosquito survival with ivermectin LC25; format: in vivo, Anopheles dirus; details: sodium heparin vs CPDA, 7 days
Protocol: Blood was drawn from a single donor and put directly into 10 ml sodium heparin tubes (NH) (158 USP units, BD Vacutainer, Franklin Lakes, NJ, USA) or 6ml CPDA Vacuette tubes (Greiner Bio-One, Kremsmϋnster, Austria) under protocol (Protocol WRAIR#2079).

An. gambiae [2] = system: An. gambiae; design: method as in PMID 20540931; details: cited from earlier work
An. gambiae [3] = details: ivermectin MDAs in Senegal at 150 µg/kg, for up to 6 days post MDA; cited from earlier work
[4] = design: method as in earlier work; details: humans, n = 4; cited from earlier work
[5] = cited from earlier work
P. falciparum = details: cited from earlier work
[6] = 23 healthy Thai volunteers, plasma data of trial [24]
[7] = post hoc estimate, median (interquartile range)

ivermectin
MTT mean transit absorption time, population estimate (%RSE) [1, 6]: 0.496 (17.1) h | ka absorption rate constant, population estimate (%RSE) [1, 6]: 0.317 (3.97) h^−1 | IIV of CL/F (%RSE) ([1]; healthy Thai volunteers): 23.1 (25.2) %CV | IIV of F relative bioavailability (%RSE) ([1]; healthy Thai volunteers): 10.7 (42.9) %CV | IIV of MTT (%RSE) ([1]; healthy Thai volunteers): 56.1 (36.2) %CV | IIV of VP/F (%RSE) ([1]; healthy Thai volunteers): 22.8 (36.0) %CV | CL/F apparent oral elimination clearance, population estimate (%RSE) ([1]; healthy Thai volunteers, allometric scaling centred on 55 kg): 9.02 (5.49) l/h | Q/F apparent inter-compartmental clearance, population estimate (%RSE) ([1]; healthy Thai volunteers, centred on 55 kg): 16.2 (5.34) l/h | AUC0–168 [1, 7]: 1331 (919–1406) ng × h/ml | Cmax [1, 7]: 45.7 (40.3–46.9) ng/ml | Terminal half-life [1, 7]: 25.0 (23.7–29.5) h | Tmax [1, 7]: 4.76 (4.67–5.04) h | P. vivax oocyst prevalence reduced by (Plasmodium vivax; ivermectin LC5 (6.7 ng/ml) co-ingested at DPI 0): 31.3% | P. vivax mean oocyst intensity reduced by (Plasmodium vivax; ivermectin LC5 at DPI 0): 35.3% | P. vivax oocyst prevalence reduced by (Plasmodium vivax; ivermectin LC25 (11.3 ng/ml) co-ingested at DPI 0): 58.8% | P. vivax mean oocyst intensity reduced by (Plasmodium vivax; ivermectin LC25 at DPI 0, P = 0.1018): 28.5% | Effect of P. vivax infection on survivorship of An. dirus that ingested ivermectin (Anopheles dirus): did not alter survivorship | Effect of anticoagulant type on survivorship of An. dirus that ingested ivermectin (An. dirus): did not alter survivorship | An. gambiae 5-day-LC50 (An. gambiae [2]): 0.0224 µg/mL | An. gambiae 5-day survivorship reduced by (An. gambiae [3]): 43.6% | Parent compound half-life [4]: 11.8 h | Safety of repeated administration ([5]; 400 µg/kg every two weeks for 12 weeks, adults, Sri Lanka and Brazil): safe | Safety and tolerability ([5]; doses up to 2000 µg/kg, healthy volunteers): safe and well tolerated | Effect on P. falciparum oocyst intensity in An. gambiae (P. falciparum; LC25 or LC5 at DPI 0): no effect | Effect on oocyst prevalence of P. falciparum in An. gambiae (P. falciparum; ivermectin LC5 at DPI −3): reduced oocyst prevalence | Sporontocidal effect for P. falciparum in An. gambiae (P. falciparum; ivermectin LC25 at DPI 6 and 9): significant sporontocidal effect | Effect on P. falciparum prevalence in An. gambiae (P. falciparum; ivermectin LC25 ingested concomitantly (DPI 0)): significantly reduced
